In patent US10005767B2, “Compositions and methods for inhibition of the JAK pathway” (Rigel Pharmaceuticals, Inc., priority 2009, dated 2018):
pIC50: −log10 of the molar value. Structures can show the parent of a compound that is named as a salt.

Tested on: human primary T-cells, IL-2 stimulated proliferation (JAK-1 and JAK-3 dependent; reported as JAK3 activity)
Test: Human primary T-cell proliferation stimulated by IL-2 (Example 3)
Type: cell-based
Details: Homo sapiens, T-cell, tested under conditions described in Example 3 (IL-2 stimulated human primary T-cell proliferation); read-out: ability to inhibit JAK3 activity, IC50 range (Table V)
Procedure, shortened: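 Peripheral-blood human T-cells pre-activated via TCR/CD28, IL-2-starved overnight, then cultured 72 h at 37 °C with compound in Yssel's medium containing IL-2 (80 U/mL in cell suspension). Proliferation read as viable-cell ATP by CellTiter-Glo luminescence; reduction versus control taken as JAK pathway inhibition.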

SMILES | pIC50
Cc1cnc(Nc2cccc(OC(F)(F)F)c2)nc1Nc1ccc2oc(=O)[nH]c2c1 [Compound I-106, N4-(benzoxazolin-2-on-5-yl)-N2-(3-trifluoromethoxyphenyl)-5-methylpyrimidine-2,4-diamine trifluoroacetate salt] | > 6.30
O=c1[nH]c2cc(Nc3nc(Nc4cccc(OC(F)(F)F)c4)ncc3F)ccc2o1 [Compound I-107, N4-(benzoxazolin-2-on-5-yl)-N2-(3-trifluoromethoxyphenyl)-5-fluoropyrimidine-2,4-diamine trifluoroacetate salt] | 5.30 to 6.30
Cc1cnc(Nc2ccc(OC(F)(F)F)cc2)nc1Nc1ccc2oc(=O)[nH]c2c1 [Compound I-108, N4-(benzoxazolin-2-on-5-yl)-N2-(4-trifluoromethoxyphenyl)-5-methylpyrimidine-2,4-diamine trifluoroacetate salt] | > 6.30
O=c1[nH]c2cc(Nc3nc(Nc4ccc(OC(F)(F)F)cc4)ncc3F)ccc2o1 [Compound I-109, N4-(benzoxazolin-2-on-5-yl)-N2-(4-trifluoromethoxyphenyl)-5-fluoropyrimidine-2,4-diamine trifluoroacetate salt] | > 6.30
CCN1CCN(c2ccc(Nc3ncc(C)c(Nc4ccc5oc(=O)[nH]c5c4)n3)cc2C(F)(F)F)CC1 [Compound I-110, N4-(benzoxazolin-2-on-5-yl)-N2-[3-trifluoromethyl-4-(4-ethylpiperazin-1-yl)phenyl]-5-methylpyrimidine-2,4-diamine] | > 6.30
COc1cc(Nc2ncc(F)c(Nc3ccc4oc(=O)[nH]c4c3)n2)cc(OC)c1OC [Compound I-115, N4-(benzoxazolin-2-on-5-yl)-N2-(3,4,5-trimethoxyphenyl)-5-fluoropyrimidine-2,4-diamine] | > 6.30
COc1ccc(Nc2ncc(C)c(Nc3ccc4oc(=O)[nH]c4c3)n2)cc1OC(F)F [Compound I-116, N2-(3-(difluoromethoxy)-4-methoxyphenyl)-N4-(benzo[d]oxazol-2(3H)-on-5-yl)-5-methylpyrimidine-2,4-diamine] | > 6.30
Cc1cnc(Nc2ccc(NC3CC4CCC(C3)N4C)cc2)nc1Nc1ccc2oc(=O)[nH]c2c1 (centres unmarked) [Compound I-121, N4-(benzo[d]oxazol-2(3H)-on-5-yl)-N2-(4-(8-methyl-8-azabicyclo[3.2.1]octan-3-ylamino)phenyl)-5-methylpyrimidine-2,4-diamine] | 5.30 to 6.30
Cc1cnc(Nc2ccc(N3CCC4CCC3N4C)cc2)nc1Nc1ccc2oc(=O)[nH]c2c1 (centres unmarked) [Compound I-123, N4-(benzo[d]oxazol-2(3H)-on-5-yl)-N2-(4-(8-methyl-2,8-diazabicyclo[3.2.1]octan-2-yl)phenyl)-5-methylpyrimidine-2,4-diamine] | > 6.30

Same assay, conditions: tested under conditions described in Example 3 (IL-2 stimulated human primary T-cell proliferation); read-out: ability to inhibit JAK3 activity, IC50 range (Table V)

SMILES | pIC50
Cn1c(=O)oc2ccc(Nc3nc(Nc4ccc(F)c(NS(C)(=O)=O)c4)ncc3F)cc21 [Compound I-91, N2-((4-fluoro-3-methylsulfonylamino)phenyl)-N4-(3-methyl-2-oxo-2,3-dihydrobenzo[d]oxazol-5-yl)-5-fluoropyrimidine-2,4-diamine] | 5.30 to 6.30
Cn1c(=O)oc2cc(Nc3nc(Nc4ccc(F)c(NS(C)(=O)=O)c4)ncc3F)ccc21 [Compound I-92, N2-((4-fluoro-3-methylsulfonylamino)phenyl)-N4-(3-methyl-2-oxo-2,3-dihydrobenzo[d]oxazol-6-yl)-5-fluoropyrimidine-2,4-diamine] | < 5.00
Cc1cnc(Nc2ccc(N(C)S(C)(=O)=O)cc2)nc1Nc1ccc2oc(=O)[nH]c2c1 [Compound I-93, N2-((4-methylsulfonyl-N-methylamino)phenyl)-N4-(2-oxo-2,3-dihydrobenzo[d]oxazol-5-yl)-5-methylpyrimidine-2,4-diamine] | > 6.30
Cc1cnc(Nc2ccc(N(C)S(C)(=O)=O)cc2)nc1Nc1ccc2oc(=O)n(C)c2c1 [Compound I-94, N2-((4-methylsulfonyl-N-methylamino)phenyl)-N4-(3-methyl-2-oxo-2,3-dihydrobenzo[d]oxazol-5-yl)-5-methylpyrimidine-2,4-diamine] | > 6.30
Cc1cnc(Nc2ccc(N(C)S(C)(=O)=O)cc2)nc1Nc1ccc2c(c1)oc(=O)n2C [Compound I-95, N2-((4-methylsulfonyl-N-methylamino)phenyl)-N4-(3-methyl-2-oxo-2,3-dihydrobenzo[d]oxazol-6-yl)-5-methylpyrimidine-2,4-diamine] | > 6.30
CN(c1ccc(Nc2ncc(F)c(Nc3ccc4oc(=O)[nH]c4c3)n2)cc1)S(C)(=O)=O [Compound I-96, N2-((4-methylsulfonyl-N-methylamino)phenyl)-N4-(2-oxo-2,3-dihydrobenzo[d]oxazol-5-yl)-5-fluoropyrimidine-2,4-diamine] | > 6.30
CN(c1ccc(Nc2ncc(F)c(Nc3ccc4c(c3)oc(=O)n4C)n2)cc1)S(C)(=O)=O [Compound I-97, N2-((4-methylsulfonyl-N-methylamino)phenyl)-N4-(3-methyl-2-oxo-2,3-dihydrobenzo[d]oxazol-6-yl)-5-fluoropyrimidine-2,4-diamine] | < 5.00
Cc1cnc(Nc2cccc(S(N)(=O)=O)c2)nc1Nc1ccc2[nH]c(=O)oc2c1 [Compound I-98, N2-((3-aminosulfonyl)phenyl)-N4-(2-oxo-2,3-dihydrobenzo[d]oxazol-6-yl)-5-methylpyrimidine-2,4-diamine] | > 6.30
Cc1cnc(Nc2ccc(S(N)(=O)=O)cc2)nc1Nc1ccc2[nH]c(=O)oc2c1 [Compound I-99, N2-((4-aminosulfonyl)phenyl)-N4-(2-oxo-2,3-dihydrobenzo[d]oxazol-6-yl)-5-methylpyrimidine-2,4-diamine] | > 6.30
Cc1cnc(Nc2cccc(S(C)(=O)=O)c2)nc1Nc1ccc2[nH]c(=O)oc2c1 [Compound I-100, N2-((3-methylsulfonyl)phenyl)-N4-(2-oxo-2,3-dihydrobenzo[d]oxazol-6-yl)-5-methylpyrimidine-2,4-diamine] | > 6.30
Cc1cnc(Nc2ccc(S(C)(=O)=O)cc2)nc1Nc1ccc2[nH]c(=O)oc2c1 [Compound I-101, N2-((4-methylsulfonyl)phenyl)-N4-(2-oxo-2,3-dihydrobenzo[d]oxazol-6-yl)-5-methylpyrimidine-2,4-diamine] | > 6.30
Cc1cnc(Nc2cccc(NS(C)(=O)=O)c2)nc1Nc1ccc2[nH]c(=O)oc2c1 [Compound I-102, N2-((3-methylsulfonylamino)phenyl)-N4-(2-oxo-2,3-dihydrobenzo[d]oxazol-6-yl)-5-methylpyrimidine-2,4-diamine] | > 6.30
Cc1cnc(Nc2ccc(NS(C)(=O)=O)cc2)nc1Nc1ccc2[nH]c(=O)oc2c1 [Compound I-103, N2-((4-methylsulfonylamino)phenyl)-N4-(2-oxo-2,3-dihydrobenzo[d]oxazol-6-yl)-5-methylpyrimidine-2,4-diamine] | < 5.00
Cc1ccc(Nc2ncc(C)c(Nc3ccc4[nH]c(=O)oc4c3)n2)cc1NS(C)(=O)=O [Compound I-104, N2-((3-methylsulfonylamino-4-methyl)phenyl)-N4-(2-oxo-2,3-dihydrobenzo[d]oxazol-6-yl)-5-methylpyrimidine-2,4-diamine] | > 6.30
Cc1cnc(Nc2ccc(F)c(NS(C)(=O)=O)c2)nc1Nc1ccc2[nH]c(=O)oc2c1 [Compound I-105, N2-((4-fluoro-3-methylsulfonylamino)phenyl)-N4-(2-oxo-2,3-dihydrobenzo[d]oxazol-6-yl)-5-methylpyrimidine-2,4-diamine] | < 5.00
Cc1cnc(Nc2ccc(S(=O)(=O)NC(C)(C)C)cc2)nc1Nc1ccc2oc(=O)[nH]c2c1 [Compound I-112, N4-(benzoxazolin-2-on-5-yl)-N2-[4-N-(t-butyl)aminosulfonylphenyl]-5-methylpyrimidine-2,4-diamine] | > 6.30
Cc1ccc(Nc2ncc(C)c(Nc3ccc4oc(=O)[nH]c4c3)n2)cc1S(=O)(=O)NC(C)(C)C [Compound I-113, N4-(benzoxazolin-2-on-5-yl)-N2-[4-methyl-3-N-(t-butyl)aminosulfonylphenyl]-5-methylpyrimidine-2,4-diamine] | > 6.30
Cc1cnc(Nc2cccc(S(=O)(=O)NC(C)C)c2)nc1Nc1ccc2oc(=O)[nH]c2c1 [Compound I-114, N4-(benzoxazolin-2-on-5-yl)-N2-[3-N-(i-propyl)aminosulfonylphenyl]-5-methylpyrimidine-2,4-diamine] | > 6.30
Cc1cnc(Nc2ccc(S(=O)(=O)C(F)(F)F)cc2)nc1Nc1ccc2oc(=O)[nH]c2c1 [Compound I-117, N4-(benzo[d]oxazol-2(3H)-on-5-yl)-N2-(4-trifluoromethylsulfonyl)phenyl-5-methylpyrimidine-2,4-diamine] | > 6.30
Cc1cnc(Nc2cccc(S(=O)(=O)C(F)(F)F)c2)nc1Nc1ccc2oc(=O)[nH]c2c1 [Compound I-118, N4-(benzo[d]oxazol-2(3H)-on-5-yl)-N2-(3-trifluoromethylsulfonyl)phenyl-5-methylpyrimidine-2,4-diamine] | > 6.30
COc1cc(Nc2ncc(C)c(Nc3ccc4oc(=O)[nH]c4c3)n2)cc(OC)c1OC [Compound I-119, N4-(benzo[d]oxazol-2(3H)-on-5-yl)-N2-(3,4,5-trimethoxy)phenyl-5-methylpyrimidine-2,4-diamine] | > 6.30
Cc1cc(Nc2ncc(C)c(Nc3ccc4oc(=O)[nH]c4c3)n2)ccc1N1CCN2CCC1CC2 [Compound I-120, N4-(benzo[d]oxazol-2(3H)-on-5-yl)-N2-((4-(1,4-diazabicyclo[3.2.2]nonan-4-yl)-3-methyl)phenyl)-5-methylpyrimidine-2,4-diamine] | > 6.30
Cc1cc(Nc2ncc(C)c(Nc3ccc4oc(=O)[nH]c4c3)n2)ccc1N1CCN2CCCCC2C1 (centres unmarked) [Compound I-122, N4-(benzo[d]oxazol-2(3H)-on-5-yl)-N2-((4-(dihydro-1H-pyrido[1,2-a]pyrazin-2(6H,7H,8H,9H,9aH)-yl)-3-methyl)phenyl)-5-methylpyrimidine-2,4-diamine] | > 6.30
